What all share (format): in vivo
The subject of test [1] is Cat Flea (Cntenocephalides felis). The experiment in a line: Testing with Cat Flea, treated media infested with eggs. Particulars: eggs held five weeks, adult fleas counted. Here is the method:
Media is prepared by mixing 1 part dried bovine blood, 4 parts ground dog food pellets, and 95 parts clean sand. Compounds are dissolved in acetone and further diluted in acetone to yield the required range of concentrations. The acetone solutions are applied to measured amounts of media in small dishes. Final concentrations are expressed as micrograms of compound per gram of media. After the acetone has dried, the treated media is dispensed into small glass vials and infested with 5 to 10 cat flea (Cntenocephalides fells) eggs. The vials are loosely capped and held under controlled conditions for five weeks. Activity is assessed based on the average number of adult cat fleas present in the treated vials compared to the average number of adult cat fleas in the media

Test [2] has as its system Cotton Aphid (Aphis gossypll). The test is described as follows: Testing with Cotton Aphid, track sprayer application on infested cotton plants. The following applies: for LC90: cotton aphid on cotton plants, track sprayer approx. 200 L/ha, count of living non-winged aphids. Here is the method:
Alcala cotton plants were grown from seed in 7-cm pots under greenhouse conditions until they reached 35 to 40 cm in height; approximately four weeks old with 5 to 6 true leaves. The plants were then stripped of all foliage except for the two uppermost true leaves. Two days prior to application, heavily infested leaf sections from a cotton aphid colony were cut and placed on each untreated leaf surface. Over the two days, all stages of the aphids abandon the excised host material and migrate to the succulent growth, predominantly the lower surface of the leaves. Plants were checked prior to application for even infestation levels. Treatments consisted of 4 replicates (plants) each with 2 leaves per plant.
Formulation of technical compound was in a solvent solution. For the top rate of each compound, 20 milligrams of technical material was dissolved in 2 milliliters (ml) of a 9:1 mixture of acetone:ethanol solvent. Once dissolved, an additional 18-ml of the solvent mix was added to yield a 1 mg/ml spray solution. Additional rates were then prepared by serial dilution.
Application was made by an automated tracksprayer (RC-Insecticide #1, Serial MS-9′-002, MANDEL Scientific Company Ltd.) equipped with a single TX6 SS hollow cone nozzle to simulate an over-the-top application by a boom sprayer. Spray pressure was set at 50 PSI, and the nozzle head was set approximately 40 cm above the leaf surface (depending on the leaf position it ranged from 35-45 cm). Track velocity and all other settings were calibrated to deliver approximately 200 L/ha. After application and drying, the plants were transferred and kept in controlled environment until assessment.
Assessment of compound efficacy is evaluated by counting all living non-winged stage aphids infesting each replicate using a dissecting microscope.

In test [3] the test system is Sweetpotato Whitefly, Bemisia tabaci. The experiment in a line: Testing with Sweetpotato Whitefly, track sprayer application on egg-infested cotton plants. Particulars: for LC90: sweetpotato whitefly on cotton plants, track sprayer, assessment at 13 days after application. The procedure: Greenhouse-grown cotton plants (ca. five weeks old, grown in 7×7 cm pots containing ca. 231 cm^3 of potting soil mixture) were prepared for whitefly infestation by removing all foliage except the first or second pair of fully expanded true leaves. These plants are then moved into the whitefly colony room of the insectary (temperature maintained at 27° C.), where they are surrounded by cotton or velvetleaf plants infested with all life stages of B. tabaci. Initial movement of B. tabaci adults onto the prepared cotton plants is encouraged by gently shaking the foliage of the surrounding infested cotton and velvetleaf foliage using a 1.5-meter long willow branch. The prepared plants are left in place within the whitefly colony, where they are exposed to adult female B. tabaci oviposition for ca. 48 hours.
At the end of the oviposition exposure period, adult whiteflies are dislodged from the prepared plants by passing compressed air just above the leaves while the leaves are gently disturbed by hand for ca. 15 seconds. The prepared plants, which are now infested with eggs of B. tabaci, are removed from the insectary and any remaining adults are removed from the foliage with a hand-held vacuum fitted with a cage to trap insects. Infested plants are then selected at random and arranged into treatment groups of two or three plants each. Leaves of plants to receive different treatments are separated by a distance of at least 5 cm.
Compounds are applied within 24 hours of removing cotton plants from exposure to oviposition within the B. tabaci colony. Immediately after application, plants are moved to a holding room with a temperature of 30° C. and relative humidity of ca. 60%. Compound efficacy was observed by an assessment at 13 days after application. At this evaluation time, whitefly nymphs that have successfully developed to the third and fourth nymphal stadia can be easily seen on the underside of each cotton leaf with the aid of an illuminated magnifying lens (equipped with a circular fluorescent tube). […]

As to `CN/C(=C(/C=O)[N+](=O)[O-])N(C)Cc1ccc(Cl)nc1` [Compound One], in test [1] (0.1 μg/g rate in media), the “control of cat fleas” value turned out to be 100%.

On to `O=C/C(=C1/NCCN1Cc1ccc(Cl)nc1)[N+](=O)[O-]` [Compound Three], for which the LC90 entry is listed as “less than 0.78 grams per hectare” in test [2] and “less than 2.52 grams per hectare” in test [3]. In addition, the entries for the “control of cat fleas” value in test [1] (0.01 μg/g rate in media) and in test [1] (0.1 μg/g rate in media) were 81% and 96%, respectively.

With `O=[N+]([O-])/C=C1\NCCN1Cc1ccc(Cl)nc1` [Comparative Compound A], the results for the LC90 in test [2] and in test [3] were 9.1 grams per hectare and 6.66 grams per hectare, respectively. Further, the “times more Comparative Compound A needed to reach the LC90 level than Compound Three” value is ~11.7 times in test [2] (cotton aphid, ratio of LC90 values) and ~2.7 times in test [3] (sweetpotato whitefly, ratio of LC90 values).

Source of the values: US7375122B2, “Compounds useful as pesticides” (Dow AgroSciences LLC, priority 2002, dated 2008).
